According to article PMC5417501, “Occurrence of urea-based soluble epoxide hydrolase inhibitors from the plants in the order Brassicales” (PLoS ONE, 2017):
In brackets after ≈: the same amount, converted by molar mass. Several values for one entry are separate records, joined by “and”; a condition that tells them apart may be missing. Equal entries are not always repeated. Entries after “also recorded” stand apart in the source; their conditions may differ. Where two headings read alike, the source gives them in different places.

How the values were obtained:
human sEH = biological target: T1, human sEH (Homo sapiens, UniProt P34913); assay: sEH inhibition by fluorescent assay (CMNPC assay), human enzyme; type: biochemical
T1 construct: made in house; host or cells: insect High Five cells (recombinant baculovirus)
T1 sequence (P34913 1-555): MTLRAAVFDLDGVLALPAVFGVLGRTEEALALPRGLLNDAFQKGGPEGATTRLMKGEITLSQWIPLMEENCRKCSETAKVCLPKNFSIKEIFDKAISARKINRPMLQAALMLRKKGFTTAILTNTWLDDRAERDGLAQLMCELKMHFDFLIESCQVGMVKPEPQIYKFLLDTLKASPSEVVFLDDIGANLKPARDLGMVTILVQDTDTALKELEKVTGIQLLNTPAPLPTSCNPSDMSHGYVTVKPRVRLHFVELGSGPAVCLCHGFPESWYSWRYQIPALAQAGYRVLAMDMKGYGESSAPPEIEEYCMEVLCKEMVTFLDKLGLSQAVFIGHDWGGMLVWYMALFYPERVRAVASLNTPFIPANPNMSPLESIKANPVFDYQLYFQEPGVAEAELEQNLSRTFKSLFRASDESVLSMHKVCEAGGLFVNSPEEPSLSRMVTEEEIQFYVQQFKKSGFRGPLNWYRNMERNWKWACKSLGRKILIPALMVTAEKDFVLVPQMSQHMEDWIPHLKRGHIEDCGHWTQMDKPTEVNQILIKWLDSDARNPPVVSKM
Protocol: (§1) Recombinant sEH was produced in insect High Five cells using recombinant baculovirus expression vectors, and purified by affinity chromatography as reported previously. The enzyme appeared as a single band (0.3 μg loading) with an estimated purity of more than 95% by Coomassie Brilliant Blue staining following SDS-PAGE separation. The final recombinant sEH preparations had no esterase or glutathione S-transferase activities, which interfere with the CMNPC assay as described below.
(§2) IC50 values were determined as described previously using cyano (2-methoxynaphthalen-6-yl) methyl trans-(3-phenyl-oxyran-2-yl) methyl carbonate (CMNPC) as a fluorescent substrate. Recombinant sEH (0.96 nM) was incubated with inhibitors for 5 min in 25 mM bis-Tris/HCl buffer (pH 7.0) containing 0.1 mg/mL of BSA at 30°C prior to substrate introduction ([S] = 5 μM). Activity was measured by determining the appearance of the 6-methoxy-2-naphthaldehyde with an excitation wavelength of 330 nm and an emission wavelength of 465 nm for 10 min.

rat sEH [1] = biological target: T2, rat sEH (Rattus norvegicus, UniProt P80299); assay: sEH inhibition by fluorescent assay (CMNPC assay), rat enzyme; type: biochemical; conditions: for IC50: CMNPC substrate, recombinant enzyme
T2 construct: made in house; host or cells: insect High Five cells (recombinant baculovirus)
T2 sequence (P80299 1-554): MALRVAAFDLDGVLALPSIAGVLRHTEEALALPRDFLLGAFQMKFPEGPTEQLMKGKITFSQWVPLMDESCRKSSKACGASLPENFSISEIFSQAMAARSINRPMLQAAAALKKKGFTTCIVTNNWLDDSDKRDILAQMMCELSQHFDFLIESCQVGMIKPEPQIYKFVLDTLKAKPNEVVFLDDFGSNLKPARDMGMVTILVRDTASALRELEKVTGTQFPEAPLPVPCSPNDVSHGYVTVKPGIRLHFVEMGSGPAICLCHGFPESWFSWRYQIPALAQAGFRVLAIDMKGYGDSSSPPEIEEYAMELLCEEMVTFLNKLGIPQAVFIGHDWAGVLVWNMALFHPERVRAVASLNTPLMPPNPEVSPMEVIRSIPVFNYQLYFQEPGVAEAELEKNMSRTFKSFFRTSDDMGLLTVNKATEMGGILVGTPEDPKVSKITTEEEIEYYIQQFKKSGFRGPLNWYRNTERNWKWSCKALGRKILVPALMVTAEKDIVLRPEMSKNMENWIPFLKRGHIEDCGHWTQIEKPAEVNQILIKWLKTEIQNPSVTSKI
Protocol: as §1, §2

Solubility = type: physicochemical
[2] = test system: carrageenan-induced inflammatory pain; parameters: method as in Rose et al., (2010); conditions: rat, intraplantar, morphine 10 µg/paw, TPCU 10 ng/paw; ref Rose et al., (2010); cited from earlier work
[3] = test system: carrageenan-induced inflammatory pain; assay: Nociceptive assay, carrageenan-induced inflammatory pain model, topical application; type: in vivo; conditions: rat, 6 mg/paw in PEG400/Vanicream, monitored 4 h, p ≤ 0.001
Protocol: (§3) Male Sprague-Dawley rats weighing 225–250 g were obtained from Charles River Laboratories and maintained in the UC Davis animal housing facility with ad libitum water and food on a 12 h/12 h light-dark cycle. Behavioral nociceptive testing was conducted by assessing mechanical withdrawal threshold using an electronic von Frey anesthesiometer apparatus (IITC, Woodland Hills, CA) as described previously. The analgesic effect of compound 3 was tested using the intraplantar carrageenan-induced local inflammatory pain model. Following baseline measurements, carrageenan (50 μL, 1% solution of carrageenan in ddH2O) was administered into the plantar area of one hind paw. At 4 h post administration of carrageenan, responses were measured, and immediately after these measurement, 3 (3% in PEG400/Vanicream™ (Pharmaceutical Specialties, Inc. Rochester, MN) = 3:7, 6 mg of compound/paw), the synthetic sEH inhibitor triclocarban (TCC, 3%), or the vehicle (200 μL of PEG400/Vanicream™) was administered onto the inflamed paw by topical application. The cream was thoroughly massaged across the entire hind paw surface over a 1–2 min period. Subsequently, the ability of these treatments to reduce the carrageenan-induced inflammatory pain was monitored over the course of 4 h.
Data were analyzed using SigmaPlot 11.0 for Windows (Systat Software Inc., San Jose, CA). […]

rat sEH [4] = biological target: T2, rat sEH; parameters: method as in PMID 21381656; conditions: value marked with footnote e; cited from earlier work
[5] = value marked with footnote c, text of footnote not shown; cited from earlier work
[6] = Overnight incubation of thiourea in water at room temperature without papaya seed; type: physicochemical; conditions: 10 μM in water
[7] = Pharmacokinetics after oral gavage (cassette dosing); type: in vivo; conditions: mice; for oral availability, comparison: gavage, compound 3 and AEPU 10 mg/kg, TPPU 0.3 mg/kg; for blood level of demethoxy metabolite after oral compound 3: compound 3 10 mg/kg oral, LOQ < 9.8 nM in blood
Protocol: (§4) Pharmacokinetic profiles of the inhibitors were determined by following the procedure described previously in literature with some modifications. Male Swiss Webster mice (7 weeks old, 24–30 g) were purchased from Charles River Laboratories. Inhibitors were dissolved in polyethylene glycol (average molecular weight: 300) to give a clear solution for oral administration. […] Blood (10 μL) was collected from the tail vein using a pipet tip rinsed with EDTA. The blood samples were prepared according to the methods detailed previously, and blood samples were analyzed by LC-MS/MS.

[8] = Blood concentration during the pain assay after dermal treatment; type: in vivo; conditions: rat; for Concentration of demethoxy metabolite: after dermal treatment of compound 3 (6 mg/paw)
Protocol: as §3, §4

[9] = test system: carrageenan-induced inflammatory pain; assay: Carrageenan-induced inflammatory pain model, intraplantar administration; type: in vivo; conditions: rat, 10 µg/paw, p<0.05 vs. vehicle
Protocol: S8 Fig. Intraplantar administration of compound 3 effectively reduces carrageenan-induced inflammatory pain in rat. Administration of the inflammatory agent carrageenan (CAR) induces a stable hyperalgesic response for the duration of the experiment. Treatment with 3 (▲, 10 µg/paw, intraplantar), morphine (●, 10 µg/paw, intraplantar) or the potent synthetic sEH inhibitor (1-(1-(Cyclopropanecarbonyl) piperidin-4-yl)-3-(4- […]
pain levels (Kruskal-Wallis One Way ANOVA on Ranks, p≤0.001, Tukey’s post hoc test (compound 3 vs. vehicle, morphine vs. vehicle, TPCU vs. vehicle, p<0.05). Mean ± SE (n=6) of mechanical withdrawal threshold (% of naïve baseline) are shown. Vehicle (○), morphine (●), and TPCU (△) treatment data are from Rose et al., (2010).
(1 picture or pasted object on this page, not shown here)

[10] = S2 Table, unit inferred, read-out: hsEH IC50
[11] = CMNPC substrate, recombinant enzyme, read-out: Human sEH IC50

Q: Which results are given for `O=C(NCCc1ccccc1)NCCc1ccccc1` [Compound 8, 1,3-Diphenethylurea]?
A: sEH inhibitory potency in words (human sEH): moderate sEH inhibitory potency; IC50 (human sEH; [10]): 233 nM; IC50 (rat sEH [1]): 71 nM; solubility (Solubility): 33 ± 11 µM (≈ 8.86 µg/mL)

Q: With `CN1CC[C@]23c4c5ccc(O)c4O[C@H]2[C@@H](O)C=C[C@H]3[C@H]1C5` [morphine] as the compound, how does the “carrageenan-induced inflammatory pain (mechanical withdrawal threshold)” value (shortened to “carrageenan-induced inflammatory pain”) [2] read?
A: significantly reduced

Q: Which “more potent than compound 3 on rat sEH” value (rat sEH [1]) does the source give for `O=C(Nc1ccc(Cl)cc1)Nc1ccc(Cl)c(Cl)c1` [TCC, triclocarban, reference compound] here?
A: approximately 6 fold

Q: What about the “carrageenan induced inflammatory pain (mechanical withdrawal threshold)” value [3] of the same compound?
A: significantly reduced carrageenan induced inflammatory pain; also recorded: significantly reduced pain levels

Q: And the IC50 (rat sEH [4])?
A: 27 nM

Q: For `O=C(NCCc1ccccc1)NCCc1ccc(O)cc1` [Compound 10, 1-(4-Hydroxyphenethyl)-3-phenethylurea], which “sEH inhibitory potency in words” value (human sEH) is on record?
A: slightly higher inhibitory potency on sEH than the parent

Q: What about the IC50 (human sEH; [11]) of the same compound?
A: 134 nM

Q: What about the IC50 (human sEH; [10]) of the same compound?
A: 71.6 nM

Q: And the IC50 (rat sEH [1])?
A: 129 nM

Q: With `S=C(NCCc1ccccc1)NCCc1ccccc1` [Compound 9, 1,3-Diphenethylthiourea] as the compound, how does the IC50 (human sEH; [11]) read?
A: 2400 nM

Q: What about the IC50 (human sEH; [10]) of the same compound?
A: 134 nM

Q: What about the IC50 (rat sEH [1]) of the same compound?
A: 3300 nM

Q: Which “lower potency on human sEH than compound 3” value (human sEH) does the source give for `COc1cccc(CNC(=O)NCc2ccccc2)c1` [Compound 2, 1-Benzyl-3-(3-methoxybenzyl) urea] here?
A: approximately 2 fold

Q: And the IC50 (human sEH; [11])?
A: 534 nM

Q: And the IC50 (rat sEH [1])?
A: 308 nM

Q: With `O=S(=O)(O)ON=C(CCc1ccccc1)SC1OC(CO)C(O)C(O)C1O` (stereo not shown) [Phenethyl glucosinolate, reference compound] as the compound, how does the IC50 (human sEH; [11]) read?
A: > 10000 nM

Q: And the IC50 (rat sEH [1])?
A: > 10000 nM

Q: With `COc1ccc(CNC(=O)NCc2ccc(OC)cc2)cc1` [MMU, reference compound] as the compound, how does the IC50 (rat sEH [1]) read?
A: 218 nM

Q: What about the solubility [5] of the same compound?
A: 11 ± 2 µM (≈ 3.3 µg/mL)

Q: For `O=C(NCc1ccccc1)NCc1ccccc1` [Compound 1, 1,3-Dibenzylurea], which IC50 (rat sEH [1]) is on record?
A: 385 nM

Q: With `S=C(NCc1ccccc1)NCc1ccccc1` [1,3-dibenzylthiourea] as the compound, how does the “converted into compound 1” value [6] read?
A: Approximately 10%

Q: With `CCC(=O)N1CCC(NC(=O)Nc2ccc(OC(F)(F)F)cc2)CC1` [TPPU, 1-trifluoromethoxyphenyl-3-(1-propionylpiperidin-4-yl) urea, reference compound] as the compound, how does the “oral availability, comparison” value [7] read?
A: much higher bioavailability than compound 3

Q: With `COc1cccc(CNC(=O)NCc2cccc(OC)c2)c1` [Compound 3, 1,3-Bis (3-methoxybenzyl) urea] as the compound, how does the IC50 (human sEH; [11]) read?
A: 222 nM and ~200 nM

Q: And the “less potent than MMU” value (human sEH; human sEH)?
A: approximately 2 fold

Q: What about the IC50 (rat sEH [1]) of the same compound?
A: 155 nM

Q: And the “solubility higher than MMU” value (Solubility)?
A: approximately 10 fold

Q: What about the “carrageenan induced inflammatory pain (mechanical withdrawal threshold)” value [3] of the same compound?
A: significantly reduced carrageenan induced inflammatory pain; also recorded: significantly reduced pain levels

Q: And the concentration at 4 h ([8]; male, Sprague-Dawley, whole blood, topical, dermal 6 mg/paw, after 4 hours)?
A: > 3000 nM

Q: And the “blood concentration at peak” value ([8]; dermal 6 mg/paw, at 30 min)?
A: higher than 40 μM

Q: What about the permeability through skin ([8]; dermal 6 mg/paw, concluded from blood concentration) of the same compound?
A: high permeability through skin

Q: What about the “absorption following oral administration” value ([7]; 10 mg/kg by gavage in PEG300) of the same compound?
A: rapidly absorbed

Q: And the “oral availability, comparison” value [7]?
A: higher than that of AEPU

Q: And the “portion of compound 3 metabolized into compound 6” value ([7]; oral 10 mg/kg, based on area under the curve values)?
A: approximately 66%

Q: What about the “carrageenan-induced inflammatory pain” value [9] of the same compound?
A: significantly reduced

Q: Which IC50 (human sEH; [10]) does the source give for `O=C(NCc1cccc(O)c1)NCc1cccc(O)c1` [Compound 7, 1,3-Bis(3-hydroxybenzyl)urea] here?
A: 2700 nM

Q: What about the IC50 (rat sEH [1]) of the same compound?
A: 9600 nM

Q: And the “Concentration of demethoxy metabolite” value [8]?
A: below 200 nM

Q: What about the “blood level of demethoxy metabolite after oral compound 3” value [7] of the same compound?
A: not detected

Q: For `COc1ccc(CNC(=O)NCc2ccccc2)cc1` [BMU, reference compound], which IC50 (rat sEH [1]) is on record?
A: 182 nM

Q: With `S=C=NCCc1ccccc1` [Phenethyl isothiocyanate, reference compound] as the compound, how does the IC50 (human sEH; [11]) read?
A: > 10000 nM

Q: What about the IC50 (rat sEH [1]) of the same compound?
A: > 10000 nM

Q: Which IC50 (human sEH; read-out: human sEH IC50) does the source give for `COc1cccc(CNC(=O)NCc2cccc(O)c2)c1` [Compound 6, 1-(3-Hydroxybenzyl)-3-(3-methoxybenzyl) urea] here?
A: 1300 nM

Q: What about the IC50 (rat sEH [1]) of the same compound?
A: 1300 nM

Q: What about the “Concentration of demethoxy metabolite” value [8] of the same compound?
A: below 200 nM

Q: And the “blood level of demethoxy metabolite after oral compound 3” value [7]?
A: detected at similar concentrations to compound 3

Q: For `O=C(Nc1ccc(OC(F)(F)F)cc1)NC1CCN(C(=O)C2CC2)CC1` [TPCU, 1-(1-(Cyclopropanecarbonyl)piperidin-4-yl)-3-(4-(trifluoromethoxy)phenyl) urea], which “carrageenan-induced inflammatory pain” value [2] is on record?
A: significantly reduced
